The text below walks through data of patent publication US20040138231A1, “Pharmaceutical composition which comprise a solid dispersion of a hydroxypropyl-methylcellulose phthalate polymer” (priority 2001, published 2004).

Molecules are shown by their SMILES. In brackets after ≈: the same amount, converted by molar mass. Read-outs that look alike come from different tables or passages of the source.

The conditions of data set [1]: comparison compound of Kai T. et al., cited from earlier work.
The target of the next data set is Factor Xa (Homo sapiens, UniProt P00742). As to the kind of experiment: Factor Xa inhibitory activity versus thrombin. The data set is classed as biochemical. The note with it: at concentrations which do not inhibit, or inhibit to a lesser extent.
Factor Xa, sequence (P00742 235-488 limits assumed): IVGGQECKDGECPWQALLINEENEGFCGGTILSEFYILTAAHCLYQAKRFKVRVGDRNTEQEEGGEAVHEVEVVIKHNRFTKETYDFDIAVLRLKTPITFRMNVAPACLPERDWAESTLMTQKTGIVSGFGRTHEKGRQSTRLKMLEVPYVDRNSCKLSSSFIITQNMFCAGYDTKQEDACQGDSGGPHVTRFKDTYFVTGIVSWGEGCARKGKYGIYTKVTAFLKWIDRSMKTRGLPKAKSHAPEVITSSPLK
Factor Xa, sequence (P00742 41-179 partner limits assumed): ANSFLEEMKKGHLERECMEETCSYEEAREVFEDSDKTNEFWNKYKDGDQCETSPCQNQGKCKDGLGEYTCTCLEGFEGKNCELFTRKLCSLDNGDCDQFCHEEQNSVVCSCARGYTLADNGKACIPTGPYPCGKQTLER
The nature of data set [2]: Solubility data for Compound 1 and the Antifungal. It is filed as physicochemical.
Data set [3] in a line: Solubility Data for Compound 2. The data set is classed as physicochemical.

For orientation: solubility means how much of the substance goes into solution per volume. For the compound `CC(C)(Sc1ccc(-n2cncn2)nn1)C(O)(Cn1cncn1)c1ccc(F)cc1F` (single isomer, unassigned; (+)) [Antifungal, (+)-2-(2,4-difluorophenyl)-3-methyl-1-(1H-1,2,4-triazol-1-yl)-3-[6-(1H-1,2,4-triazol-1-yl)pyridazin-3-ylthio]butan-2-ol], the solubility in data set [1] (Water) was 1.2 µg/mL (≈ 2.7 µM); in data set [1] (pH1.2) it was 3.6 µg/mL (≈ 8.1 µM); in data set [1] (pH6.8) it was 1.2 µg/mL (≈ 2.7 µM).
Turning to `O=C(c1ccc(-c2ccncc2)cc1)N1CCN(S(=O)(=O)c2ccc3cc(Cl)ccc3c2)CC1` [Compound 1, 1-(6-chloronaphth-2-ylsulfonyl)-4-[4-(4-pyridyl)benzoyl]piperazine], the “Factor Xa inhibitory activity relative to thrombin inhibition” value at Factor Xa is “possesses Factor Xa inhibitory activity at concentrations which do not inhibit, or which inhibit to a lesser extent, the enzyme thrombin”. Further, the “solubility in the duodenum, ileum and colon” value in data set [2] (main sites of adsorption) was “low solubility”. For the same compound, the “solubility at the acidic pH of the stomach” value in data set [2] (stomach pH) is reported as “soluble within the acidic pH of the stomach”. In addition, the solubility in data set [2] (water) is below 5 µg/mL.
Turning to `O=C(c1ccc(-c2ccncc2)cc1)N1CCN(S(=O)(=O)c2cc3cc(Cl)ccc3[nH]2)CC1` [Compound 2, 1-(5-chloroindol-2-ylsulfonyl)-4-[4-(4-pyridyl)benzoyl]piperazine], the solubility in data set [3] (0.1M hydrochloric acid, pH 1.4, simulated gastric fluid) was 585 µg/mL (≈ 1220 µM); in data set [3] (0.9% saline, pH 2.5, saline or isotonic) it was 227 µg/mL (≈ 472 µM); in data set [3] (aqueous buffer, pH 3 citrate buffer, pH 2.9), 193 µg/mL (≈ 401 µM); in data set [3] (aqueous buffer, pH 5 citrate buffer, pH 5.0), 3 µg/mL (≈ 6.24 µM); in data set [3] (aqueous buffer, pH 7 phosphate buffer, pH 7.1) it was below 2 µg/mL; in data set [3] (water, pH 2.6, water), 301 µg/mL (≈ 626 µM). The “Stability of sample in solubility test” value in data set [3] (0.1M sodium hydroxide, pH 12.7) is recorded as “NR* = no result, sample shows evidence of degradation”.
